Test results reported in publication PMC6614406, “Phylogenetic and crystallographic analysis of Nostoc phycocyanin having blue-shifted spectral properties” (Scientific Reports, 2019).

Tests used:
[1] = biological target: T1, Nostoc sp. R76DM phycocyanin (N-PC) (Nostoc, UniProt A0A5H1ZR40+A0A5H1ZR41); assay: X-ray crystal structure ([…] Å); assay type: binding; settings: covalent; native chromophore attached to alpha Cys84, beta Cys82 and beta Cys153; 18 PCB per hexamer
T1 construct: native, purified from Nostoc sp; R76DM cells; (alpha3beta3)2 hexamer; subunits near 18 kDa on SDS-PAGE; chromophores covalently attached
T1 sequence (A0A5H1ZR41 entry or part of it): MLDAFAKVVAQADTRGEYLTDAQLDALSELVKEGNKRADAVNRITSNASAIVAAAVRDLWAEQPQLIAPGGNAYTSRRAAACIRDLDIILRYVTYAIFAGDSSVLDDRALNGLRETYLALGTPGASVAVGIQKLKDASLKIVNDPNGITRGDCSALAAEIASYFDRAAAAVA
T1 sequence (A0A5H1ZR40 entry or part of it): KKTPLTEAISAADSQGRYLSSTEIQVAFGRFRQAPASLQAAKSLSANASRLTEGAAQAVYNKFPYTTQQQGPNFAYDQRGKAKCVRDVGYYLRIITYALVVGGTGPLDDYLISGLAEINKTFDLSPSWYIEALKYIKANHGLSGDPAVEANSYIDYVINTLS

[2] = biological target: Nostoc sp. R76DM phycocyanin αβ heterodimer (αβ monomer) (Nostoc sp. R76DM); assay: crystal structure; N-PC at 10 mg/mL, sitting drop vapor diffusion, 0.2 M sodium malonate, 20% (w/v) PEG 3350, 25 °C; space group P21, 2.35 Å; one (α3β3)2 hexamer in the asymmetric unit

stoichiometry N [2] | Compound | X-ray crystal structure (2.35 Å) [1]
 | C/C=C1/C(=C/c2[nH]c(/C=C3N=C(/C=C4\NC(=O)C(CC)=C4C)C(C)=C\3CCC(=O)O)c(CCC(=O)O)c2C)NC(=O)[C@@H]1C [phycocyanobilin] | The N-PC contains three PCB chromophores; one is attached covalently with Cys84 of α-subunit
6 | Nostoc sp. R76DM phycocyanin αβ heterodimer (αβ monomer) (complex) | 
